The values below come from US8304393B2, “Epithelial cell growth promoter” (Patent Technology Development Inc., priority 2004, dated 2012).

One assay deals with epidermal cells. Nature of the assay: Epidermal cell growth test (Example 7, AlamarBlue). The class given is cell-based, C3H/HeN mouse. Particulars: for effect on the epidermal cells as compared with that of the control: 4 days culture. The text has this:
(§1) To confirm the cell selectivity of the oligopeptide obtained in Example 3 as an epithelial cell growth promoter, the presence or absence of the cell growth-promoting effect on cells existing in skin tissues, that is, HBKs, epidermal cells, dermal fibroblasts, and hair papilla cells, was examined in the following manner. Incidentally, the same culture medium and test medium as in Example 5 were used.
(§2) The skin of a 5 day-old C3H/HeN mouse was aseptically collected and cut with a surgical knife into samples of strips of approximately 2-mm-wide skin slices. The above-mentioned samples were immersed in a solution prepared by dissolving 500 U/ml of dispase (lot No. 0101, a product by GODO SHUSEI CO.) in DMEM (product code “D-5523”, a product by Sigma) containing 5% by mass of FBS (lot No. 0101, a product by Cansera International Inc.), and then kept standing at 4° C. for 16 hours. Subsequently, epidermis tissues were ablated with tweezers from the skin slices and separated from dermis tissues. The thus obtained epidermis tissues were subjected to the separation of epidermal cells, and the dermis tissues were subjected to the separation of HBKs and dermal fibroblasts.
The above-mentioned epidermis tissues were immersed in a solution prepared by dissolving 0.25% by mass of trypsin in 2.65 mM aqueous EDTA solution, and then treated at 37° C. for 5 minutes to prepare a dispersion solution of epidermal cells.
Subsequently, this dispersion solution was centrifuged at 1000 rpm for 5 minutes, and the supernatant was removed. The thus obtained epidermal cells were dispersed in a culture medium, then inoculated into a collagen-coated 96-well microplate, and cultured at 37° C. in an atmosphere containing 5% CO2.
(§3) A 1 mg portion of the pentapeptide obtained in Example 3 was added to 232.8 μl of a test medium and dissolved by stirring to prepare a 10 mM solution. Subsequently, this 10 mM solution was stepwise diluted to prepare 6 types of sample solutions each in a concentration of 100 μM (No. 1), 30 μM (No. 2), 10 μM (No. 3), 3 μM (No. 4), 1 (No. 5), and 0.3 μM (No. 6). Only a test medium was used as a control.
(§4) After 24 hours from the inoculation of the cells, the culture solutions were removed, and the cultured cells were washed with an MCDB153 solution. Each of the above mentioned sample solutions was added to the cultured cell at 100 μl/well and cultured at 37° C. in an atmosphere containing 5% CO2. After 4 days, AlamarBlue reagent (registered trademark, cat. No. DAL1100, lot No. AB083002, a product by Biosource International Inc.) was added at 10 μl/well, and the culture was continued at 37° C. in an atmosphere containing 5% CO2. After 2 hours, fluorescence intensity (excitation wavelength: 544 nm, measurement wavelength: 590 nm) was measured with a microplate reader (Model “Fluoroskan Ascent FL”, manufactured by Labsystems) to evaluate the number of cells. A significant difference test was performed by Dunnett's multiple comparison test (software “Super ANOVA V.1.11”, a product by Abacus Concepts).

The subject of another assay is C3H/He female mice. Nature of the assay: Hair regrowth on shaved dorsal skin of telogen-phase mice (Example 6). Particulars: 1 mg/ml, 100 μl/mouse once a day topical, 14th day after application. The assay is classed as in vivo. The protocol: A 1 mg portion of the pentapeptide obtained in Example 3 was dissolved in 300 μl of water for injection (product code “057-00456”, a product by Otsuka Pharmaceutical Co.), to which 200 μl of propylene glycol (product code “161-05006”, a product by Wako Pure Chemical Industries) and 500 μl of ethyl alcohol (product code “057-00456”, a product by Wako Pure Chemical Industries) were then added and they were mixed together to prepare an epithelial cell growth promoter in a concentration of 1 mg/ml.
Ten 7-week-old C3H/He female mice were raised for acclimatization for 1 week, and the hair on the dorsal of each mouse in the telogen phase of a hair cycle was shaved with an electric clipper and an electric shaver to prepare experimental animals.
Next, these experimental animals were divided into two groups each containing five mice. The epithelial cell growth promoter was applied at 100 μl/mouse once a day to the shaved area of the first group from the 3rd day after shaving on, while only a mixture of water for injection, propylene glycol, and ethyl alcohol (3:2:5 by volume) was applied as a control to the second group.
Next, these images were computer-processed to calculate with image analysis software the ratio of the hair-regrowth area (the number of pixels of hair-regrowth area/the number of pixels of shaved area) as percentages. […]

The test system of a further assay is HBKs. Nature of the assay: HBK growth test (Example 7, AlamarBlue). The settings on record: for effect on the HBK growth as compared with that of the control: 4 days culture. The class given is cell-based, C3H/HeN mouse.
Excerpt: as §1, §2
The thus obtained dermis tissues were immersed in PBS (−) (product code “P-4417”, a product by Sigma) and cut into strips with opthalmological scissors. The strips were immersed into a solution prepared by dissolving 0.2% by mass of collagenase (lot No. 001014W, a product by Nitta Gelatin Inc.) in DMEM containing 5% by mass of FBS, and then digested at 37° C. for 1 hour. The thus obtained dermis digestion solution was centrifuged at 1000 rpm for 5 minutes. The supernatant was removed, and the residue was supplemented with PBS (−) and gently pipetted to prepare a dermis suspension.
For separating dermal fibroblasts and hair bulbs, this dermis suspension was kept standing for 15 minutes to precipitate only the hair bulbs. The “standing to precipitation” procedure was repeated three times. The thus obtained hair bulbs were immersed in a solution preparing by dissolving 0.25% by mass of trypsin in 2.65 mM aqueous EDTA solution, and then treated at 37° C. for 5 minutes to prepare a dispersion solution of HBKs.
Next, this dispersion solution was centrifuged at 1000 rpm for 5 minutes. After this centrifugation, the supernatant was removed. The thus obtained HBKs were dispersed in a culture medium, then inoculated into a collagen-coated 96-well microplate, and cultured at 37° C. in an atmosphere containing 5% CO2.
as §3, §4
(The colour change of resazurin is a common sign of viable cells or microbes.)

The test system of the next assay is dermal fibroblasts. Nature of the assay: Dermal fibroblast growth test (Example 7, AlamarBlue). The settings on record: 0.3-100 μM, 3 days culture. The class given is cell-based, C3H/HeN mouse.
Excerpt: as §1
The skin of a 5 day-old C3H/HeN mouse was aseptically collected and cut with a surgical knife into samples of strips of approximately 2-mm-wide skin slices. The above-mentioned samples were immersed in a solution prepared by dissolving 500 U/ml of dispase (lot No. 0101, a product by GODO SHUSEI CO.) in DMEM (product code “D-5523”, a product by Sigma) containing 5% by mass of FBS (lot No. 0101, a product by Cansera International Inc.), and then kept standing at 4° C. for 16 hours. Subsequently, epidermis tissues were ablated with tweezers from the skin slices and separated from dermis tissues. […]
(§5) After 24 hours from the inoculation of the cells, the culture solutions were removed, and the cultured cells were washed with a DMEM solution. […] After 2 hours, fluorescence intensity (excitation wavelength: 544 nm, measurement wavelength: 590 nm) was measured with a microplate reader (Model “Fluoroskan Ascent FL”, manufactured by Labsystems) to evaluate the number of cells.

Another assay deals with human hair papilla cells. Nature of the assay: Hair papilla cell growth test (Example 7, AlamarBlue). The assay is classed as cell-based. Particulars: 0.3-100 μM, 3 days culture.
Excerpt: as §1
Moreover, human hair papilla cells (product code “602-05”, a product by TOYOBO CO.) were dispersed in a culture medium, then inoculated into a collagen-coated 96-well microplate, and cultured at 37° C. in an atmosphere containing 5% CO2.
A 1 mg portion of the pentapeptide obtained in Example 3 was added to 232.8 μl of a test medium and dissolved by stirring to prepare a 10 mM solution. Subsequently, this 10 mM solution was stepwise diluted to prepare 6 types of sample solutions each in a concentration of 100 μM (No. 1), 30 μM (No. 2), 10 μM (No. 3), 3 μM (No. 4), 1 (No. 5), and 0.3 μM (No. 6). […]
as §5

For `CC[C@H](C)[C@H](NC(=O)[C@@H]1CCCN1C(=O)CN)C(=O)NCC(=O)N[C@@H](CO)C(=O)O` (racemic) [Example 3, glycyl-prolyl-isoleucyl-glycyl-serine], the “effect on the epidermal cells as compared with that of the control” value with epidermal cells (0.3 μM (No. 6)) is given as 102%; in the assay with epidermal cells (1 μM (No. 5)) it was 110%; in the assay with epidermal cells (3 μM (No. 4)), 118%; with epidermal cells (10 μM (No. 3)), 124%; in the assay with epidermal cells (30 μM (No. 2)), 127%; with epidermal cells (100 μM (No. 1)), 127%. Also, the “concentration at which significant difference from control could be noted” value was no less than 1 µM with epidermal cells (epidermal cells, 1 μM: p<0.05, 3 μM or higher: p<0.01) and no less than 1 µM in the assay on HBKs (HBKs, p<0.01, Dunnett's test). The “hair growth promotion observed in pictures of the shaved areas” value with C3H/He female mice (compared with control group) is given as “evident hair growth promotion”. Moreover, in the assay with C3H/He female mice (n=5, control 36.9±5.7%, p<0.01), the “ratio of the hair-regrowth area” value is on record as 66.6±3.5%. In addition, the “effect on the HBK growth as compared with that of the control” value worked out at 101% in the assay with HBKs (0.3 μM (No. 6)); 111% in the assay with HBKs (1 μM (No. 5)); 124% with HBKs (3 μM (No. 4)); 141% in the assay with HBKs (10 μM (No. 3)); 142% with HBKs (30 μM (No. 2)); 141% with HBKs (100 μM (No. 1)). Besides, the “influence on dermal fibroblast growth” value in the assay with dermal fibroblasts is recorded as “no influence”. For the same compound, the “influence on hair papilla cell growth” value in the assay with human hair papilla cells is reported as “no influence”.
